Series [1] is described as follows: HT-logP o/w, high throughput assay based on artificial liquid membrane permeability. The class given is physicochemical. Put shortly:
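Octanol/water partition coefficients measured in a high-throughput format based on permeability across an artificial liquid membrane.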

A short description of series [2]: high throughput solubility (HT-Solubility). Particulars: for water solubility (in words): see FIG. 10. The class given is physicochemical.
The subject of the next series is human SRIF receptors. In words: radioligand-binding displacement assay on the human SRIF receptor family (selectivity). As to the method: (§1) The generated peptides are tested for their affinity to bind to human SRIF receptors expressed in Chinese hamster lung fibroblast (CCL39) cells. This is achieved in radioligand-binding assays, a displacement experiment in which the concentration of a substance is measured which is necessary for the replacement of 50% of a specifically bound radioligand ([^125I]LTT-SRIF28). Specific binding is measured as the total binding of receptor-specific radioligand minus the amount of radioligand bound in presence of unmarked SRIF-14 (100 nM, nonspecific binding).

Series [3] in a line: high throughput permeability (HT-Permeability, log Pe). The class given is physicochemical. The following applies: PAMPA, Pe in cm/s. In general terms: PAMPA measures passive passage across an artificial lipid membrane.
A further series has as its target T1, hsst4 receptor (Homo sapiens, UniProt P31391).
T1 construct: expressed in transfected cells; host or cells: Chinese hamster lung fibroblast (CCL39) cells
In words: radioligand-binding displacement assay ([125I]LTT-SRIF28), receptor expressed in CCL39 cells. The following applies: hsst4; [125I]LTT-SRIF28 displacement. How it is done:
as §1

Series [4] can be described thus: logP octanol by pH-metric titration (GLpKa instrument). The class given is physicochemical. The following applies: read-out: log P/D logP octanol. How it is done:
In order to have a real measure of log P values for highly polar compounds, respective values for compounds 1 to 3 (C-terminal L-β-homothreonine amides) and compounds 7 to 9 (C-terminal 4-amino-5-methyl-dihydro-fuan-2-ones) are measured by employing pH-metric titration technology using a GLpKa instrument (Box et al. 2003). The high polarity of these two mixed α/β^3-tetrapeptides can be controlled by N-terminal introduction of lipophilization tags. The conjugation with fatty acid analogs leads to compounds with druglike polarity (5, 6, 10, 11, 12, 13, 14, 15, 16, 17, 18 and 26).

Setting [5] is: octanol/water; read-out: HT LogP ohw.
Setting [6] is: pH 4, pH 4.0, read-out: HT-Permeability logPe pH 4.0 (converted).
Setting [7] is: pH 6.8, pH 6.8, read-out: HT-Permeability logPe pH 6.8 (converted).
Setting [8] is: pH 8, pH 8.0, read-out: HT-Permeability logPe pH 8.0 (converted).
[9] abbreviates: pH 1, pH 1.0, read-out: HT-Solubility pH 1.0.
Setting [10] is: pH 6.8, pH 6.8, read-out: HT-Solubility pH 6.8.
[11] abbreviates: octanol/water, read-out: HT LogP ohw.

Values after ≈ are worked out from the molar mass of the structure shown. Like-named read-outs stand apart in the source and are kept apart here.

T1 sequence (P31391 whole entry): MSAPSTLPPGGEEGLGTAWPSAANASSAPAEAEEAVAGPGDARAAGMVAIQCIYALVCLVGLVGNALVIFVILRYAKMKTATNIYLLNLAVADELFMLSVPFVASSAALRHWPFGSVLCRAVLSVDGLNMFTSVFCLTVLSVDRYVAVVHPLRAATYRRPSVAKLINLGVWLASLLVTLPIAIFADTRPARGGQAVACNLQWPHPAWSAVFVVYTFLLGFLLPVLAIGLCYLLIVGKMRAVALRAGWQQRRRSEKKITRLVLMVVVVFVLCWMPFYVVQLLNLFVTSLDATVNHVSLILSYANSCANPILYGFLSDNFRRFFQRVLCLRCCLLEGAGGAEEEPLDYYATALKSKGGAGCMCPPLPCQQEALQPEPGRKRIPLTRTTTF

For the compound `CCCCCN(C)C(=O)C[C@H](CCCCN)NC(=O)[C@@H](Cc1c[nH]c2ccccc12)N(Cc1ccccc1)C(=O)C[C@H](Cc1ccccc1)NC(=O)CC` [Compound 67], in series [1] (setting [5]), the logP is 4.4. The “water solubility (in words)” value in series [2] is given as “does not allow for good water solubilities”. The “selectivity amongst other hsst receptors (factor)” value in the series on human SRIF receptors (hsst4 versus other hsst receptors) was 100.

Regarding `NCCCC[C@@H](CC(N)=O)NC(=O)[C@@H](Cc1c[nH]c2ccccc12)NC(=O)C[C@@H](N)Cc1ccccc1` [Compound 59, (S)-β^3-HPhe-(R)-Trp-(S)-β^3-HLys-NH2], the Papp is 1 ×10⁻⁶ cm/s in series [3] (setting [6]), 3.98 ×10⁻⁶ cm/s in series [3] (setting [7]) and 3.16 ×10⁻⁶ cm/s in series [3] (setting [8]). Moreover, binding at hsst4 receptor was characterised by a dissociation constant (Kd) of 1510 nM. Further, the values for the solubility in series [2] (setting [9]) and in series [2] (setting [10]) were 101 µg/mL (≈ 200 µM) and 50.7 µg/mL (≈ 100 µM), respectively. In addition, in series [4], the logP was 1. In addition, in the series with human SRIF receptors, the “affinity to the receptors of the SRIF family (in words)” value is on record as “only very low affinity”.

Take `CC(=O)N[C@H](CC(=O)N[C@H](Cc1c[nH]c2ccccc12)C(=O)N[C@@H](CCCCN)CC(=O)N[C@@H]1CC(=O)O[C@@H]1C)Cc1ccccc1` [Compound 8]: the logP is 3.4 in series [1] (setting [5]) and 0.4 in series [4]. Besides, in series [3] (setting [8]), the Papp was 2 ×10⁻⁶ cm/s.

Turning to `CC(=O)N[C@H](CC(=O)N[C@H](Cc1c[nH]c2ccccc12)C(=O)N[C@@H](CCCCN)CC(=O)N[C@H](CC(N)=O)[C@@H](C)O)Cc1ccccc1` [Compound 3], in series [2], the “HT-Solubility pH 1.0” value stood at 0.0133 g 1-1 and the “HT-Solubility pH 6.8” value is on record as 0.0133 g 1-1. The logP in series [4] came to 0.4.

As to `CCCCCN(C)C(=O)C[C@H](CCCCN)NC(=O)[C@@H](Cc1c[nH]c2ccccc12)NC(=O)C[C@H](Cc1ccccc1)NC(=O)CC` [Compound 48], the logP in series [1] (setting [11]) was determined as 3.4. In addition, the Papp in series [3] (setting [6]) was 3.16 ×10⁻⁶ cm/s; in series [3] (setting [7]), 1.58 ×10⁻⁶ cm/s; in series [3] (setting [8]) it was 3.98 ×10⁻⁶ cm/s. Besides, the dissociation constant (Kd) (usually a measure of binding affinity in units of concentration) on hsst4 receptor amounted to 7 nM. Moreover, the solubility in series [2] (setting [9]) and in series [2] (setting [10]) was 129 µg/mL (≈ 200 µM) each time. The “water solubility (in words)” value in series [2] is recorded as “highest solubility values”.

With `CCCCCN(C)C(=O)C[C@H](CCCCN)NC(=O)[C@@H](Cc1c[nH]c2ccccc12)N(Cc1ccccc1)C(=O)C[C@H](Cc1ccccc1)NC(=O)CC` [Compound 66, Propionyl-(S)-β^3-HPhe-(R)—N-Benzyl-Trp-(S)-β^3-HLys-methyl-pentyl-amide], in series [1] (setting [11]), the logP worked out at 5.5. The Papp is 7.94 ×10⁻⁶ cm/s in series [3] (setting [7]) and 3.98 ×10⁻⁶ cm/s in series [3] (setting [8]). This compound also had a Kd at hsst4 receptor of 14 nM. For the same compound, the solubility – broadly, the dissolved amount per volume that the medium holds – was determined as 147 µg/mL (≈ 200 µM) in series [2] (setting [9]) and 14.7 µg/mL (≈ 19.9 µM) in series [2] (setting [10]). In addition, the “water solubility (in words)” value in series [2] was “does not allow for good water solubilities”.

For `CCCCCN(C)C(=O)C[C@H](CCCCN)NC(=O)[C@@H](Cc1c[nH]c2ccccc12)N(C)C(=O)C[C@H](Cc1ccccc1)NC(=O)CC` [Compound 64], the Papp is 6.31 ×10⁻⁶ cm/s in series [3] (setting [7]) and 2 ×10⁻⁶ cm/s in series [3] (setting [8]). The “water solubility (in words)” value in series [2] is “highest solubility values”. Also, the logP in series [4] was determined as 3.1.

On to `CN(C(=O)C[C@@H](N)Cc1ccccc1)[C@H](Cc1c[nH]c2ccccc12)C(=O)N[C@@H](CCCCN)CC(N)=O` [Compound 72, (S)-β^3-HPhe-(R)—N-Me-Trp-(S)-β^3-HLys-NH2], for which the Papp in series [3] (setting [6]) is 5.01 ×10⁻⁶ cm/s; in series [3] (setting [7]), 7.94 ×10⁻⁶ cm/s; in series [3] (setting [8]), 6.31 ×10⁻⁶ cm/s. Moreover, the “HT-Solubility pH 1.0” value in series [2] came to 0.1041 g 1-1. The “HT-Solubility pH 6.8” value in series [2] came out at 0.1041 g 1-1. Moreover, the logP in series [4] was found to be 1.5.

Take `CCCCCN(C)C(=O)C[C@H](CCCCN)NC(=O)[C@@H](Cc1c[nH]c2ccccc12)NC(=O)C[C@H](Cc1ccccc1)NC(=O)CC` [Compound 49, Propionyl-(S)-β^3-HPhe-(R)-Trp-(S)-β^3-HLys-methyl-pentyl-amide]: the “HT LogP ohw” value in series [1] (octanol/water) is recorded as 3.7. Moreover, in series [2], the “HT-Solubility pH 1.0” value came to 0.1294 g 1-1, the “HT-Solubility pH 6.8” value was determined as 0.1294 g 1-1 and the “water solubility (in words)” value is on record as “highest solubility values”. In series [4], the logP amounted to 2.8.

`CCCCCNC(=O)C[C@H](CCCCN)NC(=O)[C@@H](Cc1c[nH]c2ccccc12)N(C)C(=O)C[C@H](Cc1ccccc1)NC(=O)CC` [Compound 70, Propionyl-(S)-β^3-HPhe-(R)—N-Me-Trp-(S)-β^3-HLys-pentyl-amide]: the logP in series [1] (setting [11]) came out at 3.3. Besides, the Papp in series [3] (setting [6]) is 5.01 ×10⁻⁶ cm/s; in series [3] (setting [7]) it was 3.98 ×10⁻⁶ cm/s; in series [3] (setting [8]), 12.6 ×10⁻⁶ cm/s. Also, on hsst4 receptor, the Kd worked out at 35 nM. Moreover, the solubility in series [2] (setting [9]) and in series [2] (setting [10]) was 129 µg/mL (≈ 200 µM) throughout. In series [2], the “water solubility (in words)” value was “highest solubility values”.

For the compound `CC(=O)N[C@H](CC(=O)N[C@H](Cc1cn(C)c2ccccc12)C(=O)N[C@@H](CCCCN)CC(=O)N[C@@H]1CC(=O)O[C@@H]1C)Cc1ccccc1` [Compound 21, Ac—(S)-β^3-HPhe-(R)-1-Me-Trp-(S)-β^3-HLys-(R)-4-amino-(R)-5-methyl-dihydro-furan-2-one], the logP in series [1] (setting [11]) turned out to be 3.3. Also, in series [3] (setting [6]), the Papp was 0.1 ×10⁻⁶ cm/s. Further, at hsst4 receptor, the Kd was 708 to 2950 nM. The solubility in series [2] (setting [9]) and in series [2] (setting [10]) was 13.2 µg/mL (≈ 20 µM) in each case.
